Data: article PMC12501277, “The deubiquitylase OTUB1 drives gemcitabine resistance in pancreatic cancer by enhancing pyrimidine metabolism through modulating DHODH mRNA stability” (Cell Death & Disease, 2025)

Molecular target: T1, OTUB1 (Homo sapiens, UniProt Q96FW1)
T1 construct: Recombinant human OTUB1 protein (Abcam, ab157086)
Assay: SPR (Biacore 8K, OTUB1 immobilized on CM5 chip)
Format: binding

T1 sequence (Q96FW1 2-271): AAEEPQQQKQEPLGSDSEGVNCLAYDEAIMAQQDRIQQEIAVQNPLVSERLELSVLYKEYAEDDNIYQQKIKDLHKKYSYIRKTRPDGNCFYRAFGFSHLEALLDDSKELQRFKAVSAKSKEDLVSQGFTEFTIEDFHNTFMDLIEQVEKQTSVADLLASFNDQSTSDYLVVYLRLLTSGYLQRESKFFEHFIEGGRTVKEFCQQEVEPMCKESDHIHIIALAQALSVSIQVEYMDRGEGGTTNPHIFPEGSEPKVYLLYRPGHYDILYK

Kd: 23.5 µM
Compound: COc1cc(NC(=O)CCN2CCC(OC(=O)Nc3ccccc3-c3ccccc3)CC2)c(Cl)cc1CNC[C@H](O)c1ccc(O)c2[nH]c(=O)ccc12 [Batefenterol]
